Assay results reported in patent US12622916B2, “Use of H3K9me3 modulation for enhancing cognitive function” (THE REGENTS OF THE UNIVERSITY OF CALIFORNIA, priority 2015, dated 2026).
Entries after “also recorded” stand apart in the source; their conditions may differ.

Legend:
Format in all cases: in vivo
aged C57Bl/6J male mice = test: Object location memory (OLM) task in aged mice; conditions: for OLM retention: memory performance (exploration of novel versus familiar location): retention test 24 hours later
Procedure: Object Location Memory (OLM): Training and testing procedures were performed using a standard OLM protocol. Briefly, 22 aged mice and 18 young mice were handled for about 2-3 minutes per day for 5 days, followed by habituation to the experimental apparatus (white rectangular open field measuring 30×23×21.5 cm) for 5 min per day for 5 consecutive days before training.
Dose Response in OLM: On the test day mice were given 3 minutes of habituation (in an empty test arena) followed by i.p. injection of ETP69 (10 mg/kg (n=8) or 20 mg/kg (n=7)) or vehicle (n=7). Mice were then given a 3-min acquisition trial (with 2 similar objects placed in the arena opposite each other) 30 minutes after the i.p. injection of drug or vehicle and all animals were then returned to their home cages for a 24 hour inter-trial interval. Twenty-four hours later, a 3-minute retention test was administered, where one object was moved to a novel location and the amount of time the animals spent exploring the novel versus familiar location was recorded in order to evaluate the dose response in the OLM task. Since animals that had received 10 mg/kg performed better than other groups in the OLM task, 10 mg/kg was used for the remainder of the study. This OLM paradigm has previously shown to be subthreshold for learning.
Acquisition (pre-training) or Consolidation (post-training): In another test, aimed to determine the efficacy of the compound in pre and post training paradigms, the same group of 22 aged animals were retested on the OLM task 3 weeks after the first test. To determine whether the drug impacted acquisition or consolidation mechanisms, mice were injected with the 10 mg/kg compound (i.p. n=7) or vehicle (n=8). Animals were sacrificed right after retention testing (i.e. 24 hours post injection), and hippocampi were removed, rapidly frozen on dry ice, and stored at −80° C. until processing for trimethylation levels and BDNF assay. FIG. 2 is a graphical representation of the effect of the drug at 10 mg/kg and 20 mg/kg (i.p) administered 30 minutes prior to acquisition phase in the novel place position task in mice. […] Data are mean±SEM; n=7 or 8/group.

aged mice [1] = test: Unsupervised learning task (USL) in aged mice; conditions: 10 mg/kg i.p.
Procedure: Unsupervised learning task: A new group of 12 aged animals were used for the unsupervised learning task. Procedures were adapted from published work. The unsupervised learning (USL) behavioral apparatus consisted of a large open field divided by walls into 4 chambers, all accessible by small entrances in each dividing wall. The animals can also access a smaller attached enclosed dark compartment by an open entrance. After 5 days of handling, animals were injected with ETP69 (10 mg/kg, i.p.) or vehicle and placed in the video-monitored USL box for thirty minutes, and the returned to the home cage. 24 hours later the animals were placed in the USL box again and euthanized immediately after. Their brains were rapidly removed, hippocampus dissected rapidly, frozen on dry ice, and stored at −80° C. until further processing
To evaluate if H3K9me3 is implicated in measures of spatial learning and to evaluate molecular endpoints, a second series of experiments was conducted with the USL task being the behavioral endpoint. The USL task is a simple behavioral paradigm in which mice are allowed to freely explore a four-compartment environment for a specified period of time. Reduction in overall activity and exploration of the test arena over this time is considered a measure of learning and short-term memory. […]

aged mice [2] = test: Contextual fear conditioning in aged mice; conditions: 10 mg/kg i.p., versus aged controls
Procedure: Fear conditioning: 14 aged (18-20 months) male mice were placed in the fear-conditioning chamber were allowed to explore for 2 minutes before receiving one electric foot shocks (2 seconds, 0.2 mA). Animals were returned to the home cage 2 minutes after the foot shock.

CA1 pyramidal neurons = test: Spine counts (Golgi staining) on CA1 pyramidal neurons of aged mice; conditions: 10 mg/kg i.p., 24 hours
Procedure: Spine counts: In another series of experiments 10 aged mice (20-22 months) were injected with ETP69 (10 mg/kg; i.p) or vehicle (i.p) and 24 hours later the animals were euthanized and the brains were separated into two hemispheres. Right hemisphere was used for Golgi staining and the left was processed for flow synaptometry. Staining was conducted according to manufacturer's information (Golgi-Cox, Bioenna).
Specifically, we counted and classified spines on CA1 pyramidal neurons. Dendrite segments from neurons in CA1 of the hippocampus were imaged by confocal microscopy and a blinded investigator counted and classified dendritic spines according to their morphology. Spines were manually counted and classified as thin, mushroom, or stubby, according to previously described criteria.
For each animal, at least 3 pyramidal neurons and 200 μm of total dendrite length and 250-500 spines were analyzed (n=5 animals per group). All of the neurons were chosen from the dorsal part of the CA1 hippocampal region (according with it essential role in spatial memory) and were completely stained along basal and apical dendrites. FIG. 10 presents representative images showing effect of ETP69 treatment on spines in the CA1 of the hippocampus.

Compound: CN1C(=O)[C@@]23C[C@](C)(C#N)[C@H](c4ccc5c(c4)OCO5)N2C(=O)[C@]1(C)SS3 (racemic) [ETP69, Rac-(3S,6S,7S,8aS)-6-(benzo[d][1,3]dioxol-5-yl)-2,3,7-trimethyl-1,4-dioxohexahydro-6H-3,8a-epidithiopyrrolo[1,2-a]pyrazine-7-carbonitrile]
- OLM acquisition phase: object exploration (seconds) (aged C57Bl/6J male mice; 10 mg/kg and 20 mg/kg i.p. 30 minutes before acquisition): no difference in object exploration
- OLM acquisition phase, pre/post-trial experiment: group differences (aged C57Bl/6J male mice; 10 mg/kg i.p.): no significant group differences
- OLM retention: memory performance (exploration of novel versus familiar location) (aged C57Bl/6J male mice; 10 mg/kg i.p. 30 minutes before acquisition, 10 mg/kg): explored the novel object significantly (measured in seconds) more than the familiar object; also recorded: induced memory improvements
- OLM performance, pre-trial administration (aged C57Bl/6J male mice; 10 mg/kg i.p. 30 minutes prior to acquisition phase, tested 24 h): improved performance in the OLM task
- OLM performance, post-trial administration (aged C57Bl/6J male mice; 10 mg/kg i.p. immediately after acquisition, tested 24 h): improved performance in the OLM task
- OLM acquisition phase: total exploration time (aged C57Bl/6J male mice; 20 mg/kg i.p.): decrease in total exploration time
- OLM retention: memory performance (exploration of novel versus familiar location) (aged C57Bl/6J male mice; 20 mg/kg i.p. 30 minutes before acquisition, 20 mg/kg): performed similar to aged controls; also recorded: but not 20 mg/kg induced memory improvements
- USL total distance travelled over 30 minutes, Day 1 versus Day 2 (aged mice [1]): significant decrease in total distance travelled
- USL habituation/exploration (distance travelled), Day 2 versus Day 1 (aged mice [1]; 24 hours after treatment): significant decrease in habituation/exploration
- contextual fear conditioning performance (freezing) (aged mice [2]): improved performance
- density of stubby spines (CA1 pyramidal neurons; CA1): significantly higher density
- density of thin spines (CA1 pyramidal neurons; CA1): significantly higher density
- numbers of mushroom spines/length of dendrite (CA1 pyramidal neurons; CA1): no difference
- increase in total number of spines per length of dendrite compared to controls (CA1 pyramidal neurons; CA1 hippocampus): 45%
